# Measured values as given in the supplement of paper PMC11451515.
# System: NOMO1
# Test: cell viability relative to DMSO control; higher = less cytotoxic
# Conditions: 48 h
# Method in brief: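 Viability is expressed as a percentage of DMSO wells within each plate, and cell-free wells serve as background. Seeding densities in the 1536-well plates (5 μl) were 500 cells/well for NOMO1 or SEM leukemia cells and 1000 cells/well for P12-Ichikawa. Each line was adapted for at least four passages in each medium. Library compounds in DMSO were pin-dosed at 47 μM to 0.79 nM (11 points, threefold), and CellTiter-Glo One luminescence was read after 48 h at 37°C.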
# [1] = HPLM + 10% dialyzed FBS, 0.000781 µM
# [2] = HPLM + 10% dialyzed FBS, 0.00234 µM
# [3] = HPLM + 10% dialyzed FBS, 0.00702 µM
# [4] = HPLM + 10% dialyzed FBS, 0.0211 µM
# [5] = HPLM + 10% dialyzed FBS, 0.0632 µM
# [6] = HPLM + 10% dialyzed FBS, 0.19 µM
# [7] = HPLM + 10% dialyzed FBS, 0.569 µM
# [8] = HPLM + 10% dialyzed FBS, 1.71 µM
# [9] = HPLM + 10% dialyzed FBS, 5.12 µM
# [10] = HPLM + 10% dialyzed FBS, 15.4 µM
# [11] = HPLM + 10% dialyzed FBS, 46.1 µM
# [12] = RPMI 5 mM glucose + 10% FBS, 0.000781 µM
# [13] = RPMI 5 mM glucose + 10% FBS, 0.00234 µM
# [14] = RPMI 5 mM glucose + 10% FBS, 0.00702 µM
# [15] = RPMI 5 mM glucose + 10% FBS, 0.0211 µM
# [16] = RPMI 5 mM glucose + 10% FBS, 0.0632 µM
# [17] = RPMI 5 mM glucose + 10% FBS, 0.19 µM
# [18] = RPMI 5 mM glucose + 10% FBS, 0.569 µM
# [19] = RPMI 5 mM glucose + 10% FBS, 1.71 µM
# [20] = RPMI 5 mM glucose + 10% FBS, 5.12 µM
# [21] = RPMI 5 mM glucose + 10% FBS, 15.4 µM
# [22] = RPMI 5 mM glucose + 10% FBS, 46.1 µM
# [23] = RPMI 5 mM glucose + 10% dialyzed FBS, 0.000781 µM
# [24] = RPMI 5 mM glucose + 10% dialyzed FBS, 0.00234 µM
# [25] = RPMI 5 mM glucose + 10% dialyzed FBS, 0.00702 µM
# [26] = RPMI 5 mM glucose + 10% dialyzed FBS, 0.0211 µM
# [27] = RPMI 5 mM glucose + 10% dialyzed FBS, 0.0632 µM
# [28] = RPMI 5 mM glucose + 10% dialyzed FBS, 0.19 µM
# [29] = RPMI 5 mM glucose + 10% dialyzed FBS, 0.569 µM
# [30] = RPMI 5 mM glucose + 10% dialyzed FBS, 1.71 µM
# [31] = RPMI 5 mM glucose + 10% dialyzed FBS, 5.12 µM
# [32] = RPMI 5 mM glucose + 10% dialyzed FBS, 15.4 µM
# [33] = RPMI 5 mM glucose + 10% dialyzed FBS, 46.1 µM
Structure (SMILES),cell viability [1],cell viability [2],cell viability [3],cell viability [4],cell viability [5],cell viability [6],cell viability [7],cell viability [8],cell viability [9],cell viability [10],cell viability [11],cell viability [12],cell viability [13],cell viability [14],cell viability [15],cell viability [16],cell viability [17],cell viability [18],cell viability [19],cell viability [20],cell viability [21],cell viability [22],cell viability [23],cell viability [24],cell viability [25],cell viability [26],cell viability [27],cell viability [28],cell viability [29],cell viability [30],cell viability [31],cell viability [32],cell viability [33]
COc1ccc2cccc(CCNC(C)=O)c2c1,111%,114%,95.7%,123%,104%,87.9%,122%,104%,101%,89.7%,85%,90.8%,91.6%,86.5%,92.9%,84.7%,84.6%,85.6%,94.7%,83.1%,83.2%,80.1%,94.7%,96.6%,105%,82.5%,91.3%,97.4%,97.2%,90.2%,86%,93.7%,79.6%
NC12CC3CC(CC(C3)C1)C2,108%,104%,102%,103%,138%,121%,111%,106%,101%,96.4%,88.5%,102%,102%,102%,101%,97%,108%,98.2%,94.5%,99.1%,98.5%,104%,95.3%,95.8%,108%,97.8%,93.1%,105%,103%,96%,88.3%,97%,81%
COc1cc2ncnc(Nc3ccc(F)c(Cl)c3)c2cc1OCCCN1CCOCC1,127%,115%,112%,95.3%,109%,117%,108%,96.8%,93.7%,64%,29.2%,111%,114%,109%,106%,102%,116%,104%,100%,101%,87.7%,86.2%,121%,112%,122%,112%,115%,113%,114%,109%,93.4%,97.5%,75.1%
CC(C)[C@@H](N(CCCN)C(=O)C1=CC=C(C)C=C1)C/2=C(\CC3=CC=CC=C3)C(=O)C4=C(O2)C=C(Cl)C=C4,47.8%,38.1%,34.7%,35.9%,40.9%,45.8%,34.9%,36.3%,32.5%,40.7%,4.73%,20.1%,26.5%,29%,26.4%,21.9%,29%,21.1%,23.9%,27.2%,31.7%,7.48%,48.7%,34.7%,29.5%,30.9%,35.1%,34.6%,27.2%,32.8%,29.6%,33.5%,5.92%
c1cc(OCCN2CCCCC2)cc(-c2n[nH]c3ccc(-c4nc[nH]n4)cc23)c1,116%,120%,129%,127%,137%,103%,127%,127%,114%,122%,100%,115%,115%,113%,105%,103%,122%,112%,111%,103%,104%,109%,99.5%,97.1%,101%,108%,101%,109%,114%,105%,111%,101%,109%
c1ccc2c(Oc3nc(Nc4ccc(N5CCOCC5)cc4)c4ncn(C5CCCCC5)c4n3)cccc2c1,,,,,,,,,,,,113%,117%,129%,127%,126%,133%,131%,149%,132%,153%,136%,102%,121%,126%,143%,125%,146%,139%,127%,123%,124%,135%
c1ccc(-c2nn3c(c2-c2ccnc4cc(OCCN5CCOCC5)ccc24)CCC3)nc1,122%,126%,113%,129%,133%,119%,124%,108%,117%,96.1%,70.6%,86%,99.6%,107%,105%,111%,108%,108%,99.2%,97.8%,91.3%,91.7%,66.2%,116%,102%,108%,106%,108%,109%,101%,98.5%,92.8%,83.4%
CCCCOc1ccc(C(=O)Nc2ccc(F)cc2F)cc1,85.8%,90.8%,91.4%,96.3%,89.2%,85.6%,103%,104%,92.2%,97.8%,51%,81.7%,87.5%,81.5%,89.5%,86.3%,94.7%,88.1%,93.8%,92.9%,88.3%,83%,79.5%,89.2%,76.8%,97.5%,89.6%,95.4%,91.9%,96.5%,97.8%,88.5%,92%
CCCn1c(=O)c2[nH]c(-c3cnn(Cc4cccc(C(F)(F)F)c4)c3)nc2n(CC)c1=O,111%,113%,102%,125%,115%,116%,96%,82.4%,64.1%,56.4%,43.5%,92.7%,93.1%,101%,103%,103%,105%,102%,98.8%,82.7%,69.8%,61.5%,98.6%,104%,92.1%,81.6%,105%,103%,85.3%,80.6%,76.9%,65.2%,44.7%
CN(C)c1nc(N(C)C)nc(N(C)C)n1,101%,113%,100%,105%,96.3%,92%,90.5%,97.1%,98.7%,82.3%,89.9%,96.2%,108%,102%,97.4%,99%,95.3%,94.6%,92.2%,95.9%,95.3%,91%,94%,103%,96%,99%,98.4%,103%,101%,89.4%,83.9%,90.8%,85.6%
CC1(C)OC/2=C(\[C@H](NCC3=CC=CC=C3)[C@@H]1O)C(=O)C4=CC=CC=C4C2=O,112%,36.5%,117%,101%,104%,96.1%,108%,82.5%,37.6%,22.4%,7.72%,89.7%,99.6%,89.2%,95.5%,86.7%,93.8%,95%,98.2%,37.4%,17.5%,5.95%,86.7%,90.2%,88.1%,89.3%,98.3%,92.6%,97.6%,86.9%,60.2%,26.7%,5.24%
O=P(O)(O)C(O)(Cc1cccnc1)P(=O)(O)[O][Na] (stereo unspecified),71.5%,102%,98.3%,33%,107%,97.2%,119%,116%,116%,102%,106%,85.3%,93.6%,90.8%,22.8%,90.7%,85%,93%,84.7%,83.7%,85.9%,86.6%,76.4%,80.2%,82.8%,25.2%,88.2%,93.5%,103%,92.6%,97.6%,93.6%,106%
CO[C@@H]1[C@H](N(C)C(=O)c2ccccc2)C[C@H]2O[C@]1(C)n1c3ccccc3c3c4c(c5c6ccccc6n2c5c31)C(=O)NC4,103%,104%,128%,116%,153%,134%,135%,114%,80%,54.5%,49.5%,96.7%,116%,107%,114%,121%,115%,118%,105%,87.1%,50.9%,44.3%,117%,113%,123%,111%,110%,105%,114%,93.2%,80.3%,50.8%,49.5%
CCCn1c(=O)c2[nH]c(C34CC5CC3C[C@@H](C5)C4)nc2n(CCC)c1=O,105%,62.9%,92.9%,112%,96.2%,125%,104%,105%,107%,99.5%,114%,90.5%,92.6%,102%,96.5%,87.4%,91.5%,86.5%,97.2%,90.3%,89.9%,95.5%,99%,89.2%,92.9%,95.5%,107%,98.2%,94.3%,95.6%,101%,94.8%,100%
CN(C)[C@H]\1[C@@H]2[C@@H](O)[C@@H]\3C(=C)C4=C(C(=CC=C4)O)C(=O)C3=C(\O)[C@@]2(O)C(=O)\C(=C1O)C(N)=O,130%,120%,122%,128%,135%,110%,111%,127%,103%,107%,121%,,,,,,,,,,,,127%,119%,121%,121%,116%,112%,121%,125%,111%,124%,123%
CCOC(=O)c1ccc(C#Cc2ccc3c(c2)C(C)(C)CCS3)nc1,101%,109%,122%,108%,86.1%,104%,103%,101%,97.8%,89.1%,79.6%,94%,108%,91.6%,100%,93.3%,94%,107%,96.8%,99.4%,98.6%,94.2%,90%,108%,104%,109%,97.9%,90.2%,90.7%,94.9%,94.6%,99.6%,88.7%
